From patent publication US20160137639A1, “TRIAZOLE-ISOXAZOLE COMPOUND AND MEDICAL USE THEREOF” (JAPAN TOBACCO INC., priority 2012, published 2016) come the findings set out here.

One experiment has as its target T1, mouse RORγ (Mus musculus, UniProt P51450).
T1 construct: mouse, NM_011281.2 and from Ile251 to Lys516; expressed in transfected cells; host or cells: CHO cells (transient co-transfection with pG5-Luc reporter)
T1 sequence (P51450 251-516): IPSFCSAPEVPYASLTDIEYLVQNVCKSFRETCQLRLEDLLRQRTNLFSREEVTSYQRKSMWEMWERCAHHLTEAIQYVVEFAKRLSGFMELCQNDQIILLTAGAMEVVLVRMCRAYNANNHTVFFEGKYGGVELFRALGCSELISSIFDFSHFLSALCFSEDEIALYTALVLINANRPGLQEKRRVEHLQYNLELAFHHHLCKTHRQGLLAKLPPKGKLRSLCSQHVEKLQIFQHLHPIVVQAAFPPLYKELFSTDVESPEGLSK
Briefly: Luciferase reporter gene assay of inhibitory effect against RORγ transcriptional activity (GAL4-mRORγ plasmid in CHO cells). The following applies: read-out: LUC EC50 (μM) mRORg. It is filed as cell-based. The protocol:
(§1) In vitro assay of inhibitory effect against RORγ transcriptional activity
(§2) Inhibitory effect of test article on transcriptional activity of RORγ was measured by means of the following luciferase reporter gene assay.
(§3) A cDNA encoding human and mouse RORγ ligand binding domain (LBD) were obtained based on the reported sequences (Genebank accession number and sequence: human, NM_005060.3 and from Ser253 to Lys518; mouse, NM_011281.2 and from Ile251 to Lys516).
(§4) The cDNA of human RORγ or mouse RORγ was inserted into pFA-CMV vector (Strategene), which expresses GAL4-DNA binding domain fusion protein.
(§5) The resulting plasmids are hereinafter referred to as GAL4-hRORγ plasmid and GAL4-mRORγ plasmid, respectively.
(§6) Human or mouse GAL4-RORγ plasmid was transiently co-transfected into Chinese hamster ovary cells (CHO cells) with […] plasmid, a reporter plasmid expressing firefly luciferase depending on GAL4.
(§7) TransIT CHO transfection reagent (Mirus) was used to co-transfect human or mouse GAL4-RORγ plasmid into CHO cells with pG5-Luc plasmid.
(§8) One day before the assay, CHO cells were suspended in HAM F-12 Nutrient medium containing 10 v/v % fetal bovine serum and seeded at 6×10^6 cells per 175 cm^2 cell culture flask.
(§9) Fifty four micro litters of Transit-CHO reagent was added into a 15 ml tube containing 1.16 ml of HAM F-12 Nutrient medium without fetal bovine serum and incubated at room temperature for 10 min.
(§10) The mixture was incubated at room temperature for 10 min.
(§11) Nine micro litters of CHO Mojo Reagent was then added into each tube and mixed gently. The mixture was incubated at room temperature for 10 min.
(§12) The resultant transfection reagent was applied to the cell culture.
(§13) After incubation at 37° C., 5% CO2 for 4 hr, the transfected CHO cells were harvested by a trypsin treatment.
(§14) The collected cells were resuspended in HAM F-12 Nutrient medium supplemented with 10 v/v % fetal bovine serum and plated into a 384-well-white plate at 8,000 cells/50 uL/well.
(§15) The plate was incubated at room temperature for 1 hour and then further incubated at 37° C., 5% CO2 for 3 hours.
(§16) The test articles were dissolved in dimethylsulfoxide (DMSO) to obtain a concentration of 10 mmol/L. The resulting solution was diluted with the medium just before use and added to the cells in the plate to prepare 8 different concentrations of the test article.
(§17) The final concentration of DMSO was 0.1 v/v % After the addition of the test articles, the cells were incubated at 37° C., 5% CO2 for 2 days.
(§18) RORγ transcriptional activity was detected as the intracellular luciferase activity using SteadyLite HTS Reporter Gene Assay System (Perkin Elmer).
(§19) StedyLite Reagent was diluted five-fold into a solution containing 10 mM Tricine, 0.2% w/v BSA, 0.02% v/v Tween-20 to obtain the luciferase substrate solution.
(§20) After the measurement of the cell viability using Resazurin, the culture media in the 384 well-plate were removed. Then the Luc substrate solution was added into each well.
(§21) After the incubation at room temperature for 10 minutes, luminescence of each well was measured by a microplate reader.
(§22) The luciferase activity derived from the luminescence count in the vehicle-control well treated with 0.1% DMSO alone was defined as 100%, and the luciferase activity in the test article was calculated as a percentage (%-of-control) based on the value of the vehicle-control.
(§23) EC50 value of test article was calculated by curve fitting with GraphPad Prism.
(§24) The luminescence counts at the concentration of the test article where the cytotoxicity was observed were excluded from the data analysis.

The target in the next experiment is T2, human RORγ (Homo sapiens, UniProt P51449).
T2 construct: human, NM_005060.3 and from Ser253 to Lys518; expressed in transfected cells; host or cells: CHO cells (transient co-transfection with pG5-Luc reporter)
T2 sequence (P51449 253-518): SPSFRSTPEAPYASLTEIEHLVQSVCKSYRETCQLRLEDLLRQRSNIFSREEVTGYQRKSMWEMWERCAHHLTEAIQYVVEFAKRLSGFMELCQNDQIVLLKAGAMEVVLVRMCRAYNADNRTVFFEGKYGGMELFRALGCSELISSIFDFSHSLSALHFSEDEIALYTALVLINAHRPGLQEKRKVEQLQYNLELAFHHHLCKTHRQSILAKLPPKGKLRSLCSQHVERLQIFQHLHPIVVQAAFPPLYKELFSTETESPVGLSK
Briefly: Luciferase reporter gene assay of inhibitory effect against RORγ transcriptional activity (GAL4-hRORγ plasmid in CHO cells). In kind it is cell-based. Conditions: read-out: LUC EC50 (μM) hRORg. As to the method:
as §1, §2, §3, §4, §5, §6, §7, §8, §9
A total 36 uL plasmid solution containing the GAL4-hRORγ plasmid (400 ng), pG5-Luc plasmid (9000 ng) and pcDNA3 plasmid (8600 ng) were added into the tube and mixed gently.
as §10, §11, §12, §13, §14, §15, §16, §17, §18, §19, §20, §21, §22, §23, §24
Background: A reporter such as luciferase makes a cellular process visible.

Broadly, the EC50 is the midpoint of the concentration-response curve.

For `CC(=O)N1C[C@H](C(=O)Nc2ccc(C)cc2C)[C@@H](c2nnc(CCC(C)C)n2C2CC2)C1` (racemic) [Example F-162], the EC50 is less than 3 µM on mouse RORγ and more than 3 µM on human RORγ.
As to `Cc1c(Cl)cccc1NC(=O)CC(O)c1nnc(CCC(C)C)n1C1CC1` (racemic) [Example F-164], the EC50 is less than 3 µM on mouse RORγ and more than 3 µM on human RORγ.
Taken in the same sequence, the figures for `Cc1c(Cl)cccc1NC(=O)CC(CO)c1nnc(CCC(C)C)n1C1CC1` (racemic) [Example F-167] were less than 3 µM and less than 3 µM.
`COc1cc(C)ccc1CNC(=O)[C@H]1CN(C(C)=O)C[C@@H]1c1nnc(CCC2CCCCC2)n1C1CC1` (racemic) [Example F-173]: the EC50 on mouse RORγ and at human RORγ was less than 3 µM each time.
As for `Cc1c(Cl)cccc1NC(=O)CC(CCO)c1nnc(CCC(C)C)n1C1CC1` (racemic) [Example F-175], the EC50 at mouse RORγ and on human RORγ was less than 3 µM each time.
In the case of `COc1cc(C)ccc1CNC(=O)CC(CCO)c1nnc(CCC(C)C)n1C1CC1` (racemic) [Example F-176], the EC50 on mouse RORγ and on human RORγ was more than 3 µM throughout.
Regarding `Cc1c(Cl)cccc1NC(=O)CCc1nnc(C(O)CC(C)C)n1C1CC1` (racemic) [Example F-182], the EC50 at mouse RORγ was less than 3 µM; at human RORγ it was more than 3 µM.
The corresponding values for `Cc1c(Cl)cccc1NC(=O)CCc1nnc(CCC2CCCN(C(=O)OC(C)(C)C)C2)n1C1CC1` (racemic) [Example F-186] are less than 3 µM and less than 3 µM.
The corresponding values for `Cc1c(Cl)cccc1NC(=O)CCc1nnc(CCC2CCCNC2)n1C1CC1` (racemic) [Example F-189] are more than 3 µM and more than 3 µM.
As to `CC(=O)N1CCCC(CCc2nnc(CCC(=O)Nc3cccc(Cl)c3C)n2C2CC2)C1` (racemic) [Example F-190], the EC50 at mouse RORγ and on human RORγ was more than 3 µM throughout.
As to `CC(=O)N1C[C@H](C(=O)Nc2ccc(C)cc2C)[C@@H](c2nnc(CCC3CCCCC3)n2C2CC2)C1` (racemic) [Example F-191], the EC50 on mouse RORγ and on human RORγ was less than 3 µM throughout.
Turning to `C=CCC(CC(=O)Nc1cccc(Cl)c1C)c1nnc(CCC(C)C)n1C1CC1` (racemic) [Example F-193], the EC50 on mouse RORγ and at human RORγ was less than 3 µM throughout.
On to `CCCC(CC(=O)Nc1cccc(Cl)c1C)c1nnc(CCC(C)C)n1C1CC1` (racemic) [Example F-194], for which the EC50 on mouse RORγ and on human RORγ was less than 3 µM in each case.
As for `Cc1c(Cl)cccc1NC(=O)CC(CCCOCc1ccccc1)c1nnc(CCC(C)C)n1C1CC1` (racemic) [Example F-195], the EC50 on mouse RORγ and on human RORγ was less than 3 µM each time.
In the case of `Cc1c(Cl)cccc1NC(=O)CC(CCCO)c1nnc(CCC(C)C)n1C1CC1` (racemic) [Example F-196], the EC50 on mouse RORγ and at human RORγ was less than 3 µM in each case.
With `C=CCC(CC(=O)Nc1cccc(Cl)c1C)c1nnc(CCCC(C)C)n1C1CC1` (racemic) [Example F-197], the EC50 on mouse RORγ and on human RORγ was less than 3 µM each time.
`C=CCC(CC(=O)Nc1ccc(C)cc1C)c1nnc(CCCC(C)C)n1C1CC1` (racemic) [Example F-198]: the EC50 on mouse RORγ and on human RORγ was less than 3 µM throughout.
As for `Cc1c(Cl)cccc1NC(=O)CC(CCO)c1nnc(CCCC(C)C)n1C1CC1` (racemic) [Example F-199], the EC50 on mouse RORγ and on human RORγ was less than 3 µM throughout.
In the case of `C=CCC(CC(=O)NCc1ccc(C)cc1OC)c1nnc(CCCC(C)C)n1C1CC1` (racemic) [Example F-200], the EC50 at mouse RORγ and on human RORγ was less than 3 µM each time.
For `Cc1ccc(NC(=O)CC(CCO)c2nnc(CCCC(C)C)n2C2CC2)c(C)c1` (racemic) [Example F-201], the EC50 at mouse RORγ and at human RORγ was less than 3 µM throughout.
For the compound `COc1cc(C)ccc1CNC(=O)CC(CCO)c1nnc(CCCC(C)C)n1C1CC1` (racemic) [Example F-202], the concentration for a half-maximal effect (EC50) at mouse RORγ and on human RORγ was less than 3 µM throughout.
For `Cc1c(Cl)cccc1NC(=O)CCc1nnc(CCC2CCCN(C)C2)n1C1CC1` (racemic) [Example F-203], the EC50 on mouse RORγ and at human RORγ was more than 3 µM each time.
`Cc1ccc(NC(=O)CCc2nnc(CCC3CCCCC3)n2C2CC2(F)F)c(C)c1` (racemic) [Example F-211]: the EC50 at mouse RORγ and at human RORγ was less than 3 µM throughout.
As for `Cc1c(Cl)cccc1NC(=O)CC(CCCO)c1nnc(CCCC(C)C)n1C1CC1` (racemic) [Example F-212], the EC50 at mouse RORγ and on human RORγ was less than 3 µM each time.
Turning to `Cc1c(Cl)cccc1NC(=O)CC(CC(=O)O)c1nnc(CCCC(C)C)n1C1CC1` (racemic) [Example F-213], the EC50 at mouse RORγ and on human RORγ was more than 3 µM throughout.
On to `Cc1ccc(NC(=O)CC(CCCO)c2nnc(CCCC(C)C)n2C2CC2)c(C)c1` (racemic) [Example F-214], for which the EC50 on mouse RORγ and at human RORγ was less than 3 µM throughout.
`CC(=O)N1C[C@H](C(=O)Nc2ccc(C)cc2C)[C@@H](c2nnc(CCCC(C)(C)C)n2C2CC2)C1` (racemic) [Example F-219]: the EC50 at mouse RORγ and on human RORγ was less than 3 µM in each case.
With `CC(=O)N1C[C@H](C(=O)Nc2ccc(C)cc2C)[C@@H](c2nnc(CCCC(C)C)n2C2CC2)C1` (racemic) [Example F-220], the EC50 at mouse RORγ and at human RORγ was less than 3 µM in each case.
For the compound `CC(=O)N1C[C@H](C(=O)Nc2ccc(C)cc2C)[C@@H](c2nnc(CCOC(C)(C)C)n2C2CC2)C1` (racemic) [Example F-222], the EC50 at mouse RORγ was less than 3 µM; at human RORγ, more than 3 µM.
The corresponding values for `CC(=O)N1C[C@H](C(=O)Nc2ccc(C)cc2C)[C@@H](c2nnc(CCC(C)(C)C)n2C2CC2)C1` (racemic) [Example F-223] are less than 3 µM and less than 3 µM.
With `Cc1c(Cl)cccc1NC(=O)CC(CCN1C(=O)c2ccccc2C1=O)c1nnc(CCCC(C)C)n1C1CC1` (racemic) [Example F-224], the EC50 at mouse RORγ and on human RORγ was less than 3 µM each time.
In the case of `Cc1c(Cl)cccc1NC(=O)CC(CCN)c1nnc(CCCC(C)C)n1C1CC1` (racemic) [Example F-225], the EC50 at mouse RORγ and on human RORγ was more than 3 µM throughout.
As to `CCC(C)CCc1nnc(CCC(=O)Nc2cccc(Cl)c2C)n1C1CC1` (racemic) [Example F-235], the EC50 on mouse RORγ and at human RORγ was less than 3 µM throughout.
As to `CCC(C)CCc1nnc(CCC(=O)Nc2ccc(C)cc2C)n1C1CC1` (racemic) [Example F-236], the EC50 at mouse RORγ was less than 3 µM; at human RORγ it was more than 3 µM.
